The source of these data is patent US12492181B2, “Gem-disubstituted piperidine melanocortin subtype-2 receptor (MC2R) antagonists and uses thereof” (Crinetics Pharmaceuticals, Inc., priority 2019, dated 2025).

T1 sequence (Q01718 whole entry): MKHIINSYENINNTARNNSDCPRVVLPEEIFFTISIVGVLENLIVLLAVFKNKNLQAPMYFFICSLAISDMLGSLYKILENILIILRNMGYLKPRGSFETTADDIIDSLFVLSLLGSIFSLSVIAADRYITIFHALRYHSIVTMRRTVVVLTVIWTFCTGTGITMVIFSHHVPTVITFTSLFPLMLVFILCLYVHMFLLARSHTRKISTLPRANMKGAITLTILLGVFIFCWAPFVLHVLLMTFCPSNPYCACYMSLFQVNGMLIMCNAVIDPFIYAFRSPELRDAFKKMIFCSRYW
T1 sequence (Q8TCY5 whole entry partner): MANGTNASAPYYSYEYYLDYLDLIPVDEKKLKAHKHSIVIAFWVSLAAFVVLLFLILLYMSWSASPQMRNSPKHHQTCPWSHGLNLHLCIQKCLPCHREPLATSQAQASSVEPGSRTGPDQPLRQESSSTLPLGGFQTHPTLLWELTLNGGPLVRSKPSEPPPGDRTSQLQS

The test has as its target T1, hMC2 receptor (crude hMC2R membranes from CRE-bla-CHO-K1 cells stably expressing hMC2 receptor and hMRAP accessory protein) (Homo sapiens, UniProt Q01718).
T1 construct: crude membrane fractions
Description: hMC2 membrane binding assay ([125I]ACTH (1-39) Tyr23, SPA). The settings on record: displacement of 0.2 nM [125I]ACTH (1-39) Tyr23 from hMC2R membranes, 1.5 hours at room temperature; read-out: MC2R binding potency. The method, boiled down:
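Ki values come from non-linear regression of SPA scintillation counts, with compounds displacing [125I]ACTH(1-39) Tyr23. Membranes come from CRE-bla-CHO-K1 cells stably expressing hMC2 receptor together with hMRAP. They are preincubated with WGA-coated PVT SPA beads in 50 mM HEPES pH 7.4 with 0.20% BSA, Mg2+, Ca2+ and protease inhibitors.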
For the compound `CCOc1ncccc1-c1ccc(C2(C(=O)NCCN(C)C)CCN(c3ccc(C(F)(F)F)cc3Cl)CC2)cn1` [Compound 1-224, 1-[2-chloro-4-(trifluoromethyl)phenyl]-N-[2-(dimethylamino)ethyl]-4-{2′-ethoxy-[2,3′-bipyridin]-5-yl}piperidine-4-carboxamide], the Ki is < 10 nM.
In the case of `CN1CC[C@@H](NC(=O)C2(c3ccc(-c4cccc5c4OC(F)(F)O5)nc3)CCN(c3ccc(C(F)(F)F)cc3C#N)CC2)C1` [Compound 1-67, 1-[2-cyano-4-(trifluoromethyl)phenyl]-4-[6-(2,2-difluoro-2H-1,3-benzodioxol-4-yl)pyridin-3-yl]-N-[(3R)-1-methylpyrrolidin-3-yl]piperidine-4-carboxamide], the Ki lay within 10 to 100 nM.
In the case of `CCOc1ncccc1-c1ccc(C2(NC(=O)[C@H]3CCCN3C)CCN(c3ccc(C(F)(F)F)cc3C#N)CC2)cc1` [Compound 2-17, (2R)—N-{1-[2-cyano-4-(trifluoromethyl)phenyl]-4-[4-(2-ethoxypyridin-3-yl)phenyl]piperidin-4-yl}-1-methylpyrrolidine-2-carboxamide], the Ki was in the range of 10 to 100 nM.
Consider `CN(C)CCNC(=O)C1(c2cnc(-c3cccn3C)c(F)c2)CCN(c2ccc(C(F)(F)F)cc2F)CC1` [Compound 1-304, N-[2-(dimethylamino)ethyl]-1-[2-fluoro-4-(trifluoromethyl)phenyl]-4-[5-fluoro-6-(1-methyl-1H-pyrrol-2-yl)pyridin-3-yl]piperidine-4-carboxamide], for which the Ki is < 10 nM.
With `COc1ccccc1-c1ncc(C2(NC(=O)CN(C)C)CCN(c3ccc(C(F)(F)F)cc3C#N)CC2)cc1F` [Compound 2-61, N-{1-[2-cyano-4-(trifluoromethyl)phenyl]-4-[5-fluoro-6-(2-methoxyphenyl)pyridin-3-yl]piperidin-4-yl}-2-(dimethylamino)acetamide], the Ki is < 10 nM.
In the case of `CCOc1ncccc1-c1ncc(C2(C(=O)N[C@@H](C)CN(C)C)CCN(c3ccc(Cl)cc3C#N)CC2)cc1F` [Compound 1-325, 1-(4-chloro-2-cyanophenyl)-N-[(2S)-1-(dimethylamino)propan-2-yl]-4-{2′-ethoxy-3-fluoro-[2,3′-bipyridin]-5-yl}piperidine-4-carboxamide], the Ki is < 10 nM.
As for `CCOc1ncccc1-c1ccc(C2(NC(=O)[C@@H]3CCN(C)C3)CCN(c3ccc(C(F)(F)F)cc3C#N)CC2)cn1` [Compound 2-7, (3R)—N-{1-[2-cyano-4-(trifluoromethyl)phenyl]-4-{2′-ethoxy-[2,3′-bipyridin]-5-yl}piperidin-4-yl}-1-methylpyrrolidine-3-carboxamidev], the Ki was < 10 nM.
In the case of `COc1ncccc1-c1ccc(C2(C(=O)N[C@@H](C)CN(C)C)CCN(c3ccc(C(F)(F)F)cc3F)CC2)cn1` [Compound 1-295, N-[(2S)-1-(dimethylamino)propan-2-yl]-1-[2-fluoro-4-(trifluoromethyl)phenyl]-4-{2′-methoxy-[2,3′-bipyridin]-5-yl}piperidine-4-carboxamide], the Ki was < 10 nM.
Turning to `CCOc1ncccc1-c1ccc(C2(C(=O)N[C@H]3CCN(C)C3)CCN(c3ccc(OC(F)(F)F)cc3C#N)CC2)cn1` [Compound 1-39, 1-[2-cyano-4-(trifluoromethoxy)phenyl]-4-{2′-ethoxy-[2,3′-bipyridin]-5-yl}-N-[(3S)-1-methylpyrrolidin-3-yl]piperidine-4-carboxamide], the Ki was < 10 nM.
Take `CCn1nccc1-c1ccc(C2(C(=O)N[C@@H]3CCN(C)C3)CCN(c3ccc(C(F)(F)F)cc3C#N)CC2)cn1` [Compound 1-62, 1-[2-cyano-4-(trifluoromethyl)phenyl]-4-[6-(1-ethyl-1H-pyrazol-5-yl)pyridin-3-yl]-N-[(3R)-1-methylpyrrolidin-3-yl]piperidine-4-carboxamide]: the Ki was < 10 nM.
In the case of `CCOc1ncccc1-c1ccc(C2(C(=O)NCC3CN(C)C3)CCN(c3ccc(C(F)(F)F)cc3C#N)CC2)cn1` [Compound 1-18, 1-[2-cyano-4-(trifluoromethyl)phenyl]-4-{2′-ethoxy-[2,3′-bipyridin]-5-yl}-N-[(1-methylazetidin-3-yl)methyl]piperidine-4-carboxamide], the Ki was < 10 nM.
With `CCOc1ncccc1-c1ccc(C2(C(=O)N[C@H]3CCN(C)C3)CCN(c3ccc(C(F)(F)F)cc3Cl)CC2)nn1` [Compound 1-194, 1-[2-chloro-4-(trifluoromethyl)phenyl]-4-[6-(2-ethoxypyridin-3-yl)pyridazin-3-yl]-N-[(3S)-1-methylpyrrolidin-3-yl]piperidine-4-carboxamide], the Ki was < 10 nM.
With `CNCCCNC(=O)C1(c2ccc(-c3cccn3C)nc2)CCN(c2ccc(C(F)(F)F)cc2C#N)CC1` [Compound 1-206, 1-[2-cyano-4-(trifluoromethyl)phenyl]-4-[6-(1-methyl-1H-pyrrol-2-yl)pyridin-3-yl]-N-[3-(methylamino)propyl]piperidine-4-carboxamide], the Ki lay in the range of 10 to 100 nM.
Take `CN(C)C1(CNC(=O)C2(c3ccc(-c4cccn4C)nc3)CCN(c3ccc(C(F)(F)F)cc3C#N)CC2)CC1` [Compound 1-263, 1-[2-cyano-4-(trifluoromethyl)phenyl]-N-{[1-(dimethylamino)cyclopropyl]methyl}-4-[6-(1-methyl-1H-pyrrol-2-yl)pyridin-3-yl]piperidine-4-carboxamide]: the Ki lay within 10 to 100 nM.
The same measure for `CN1CC(CNC(=O)C2(c3ccc(-c4cccn4C)nc3)CCN(c3ccc(C(F)(F)F)cc3C#N)CC2)C1` [Compound 1-220, 1-[2-cyano-4-(trifluoromethyl)phenyl]-4-[6-(1-methyl-1H-pyrrol-2-yl)pyridin-3-yl]-N-[(1-methylazetidin-3-yl)methyl]piperidine-4-carboxamide]: < 10 nM.
With `CNCCNC(=O)C1(c2cnc(-c3cccn3C)c(F)c2)CCN(c2ccc(C(F)(F)F)cc2Cl)CC1` [Compound 1-310, 1-[2-chloro-4-(trifluoromethyl)phenyl]-4-[5-fluoro-6-(1-methyl-1H-pyrrol-2-yl)pyridin-3-yl]-N-[2-(methylamino)ethyl]piperidine-4-carboxamide], the Ki is < 10 nM.
For the compound `CN(C)[C@@H]1COC[C@H]1NC(=O)C1(c2ccc(-c3cccn3C)nc2)CCN(c2ccc(C(F)(F)F)cc2C#N)CC1` [Compound 1-264, 1-[2-cyano-4-(trifluoromethyl)phenyl]-N-[(3S,4S)-4-(dimethylamino)oxolan-3-yl]-4-[6-(1-methyl-1H-pyrrol-2-yl)pyridin-3-yl]piperidine-4-carboxamide], the Ki fell in the range of 10 to 100 nM.
On to `Cn1cccc1-c1ccc(C2(C(=O)NC[C@@H]3CCN3)CCN(c3ccc(C(F)(F)F)cc3C#N)CC2)cn1` [Compound 1-235, N-{[(2S)-azetidin-2-yl]methyl}-1-[2-cyano-4-(trifluoromethyl)phenyl]-4-[6-(1-methyl-1H-pyrrol-2-yl)pyridin-3-yl]piperidine-4-carboxamide], for which the Ki fell in the range of 10 to 100 nM.
The value for `CCOc1ncccc1-c1ccc(C2(C(=O)N[C@H]3CCN(C)C3)CCN(c3ccc(C(F)(F)F)cc3F)CC2)cn1` [Compound 1-186, 4-{2′-ethoxy-[2,3′-bipyridin]-5-yl}-1-[2-fluoro-4-(trifluoromethyl)phenyl]-N-[(3S)-1-methylpyrrolidin-3-yl]piperidine-4-carboxamide] was < 10 nM; that for `COc1ccccc1-c1ccc(C2(NC(=O)N[C@H]3CCN(C)C3)CCN(c3ccc(C(F)(F)F)cc3C#N)CC2)cn1` [Compound 2-55, 1-{1-[2-cyano-4-(trifluoromethyl)phenyl]-4-[6-(2-methoxyphenyl)pyridin-3-yl]piperidin-4-yl}-3-[(3S)-1-methylpyrrolidin-3-yl]urea] was < 10 nM.
As to `CN(CCNC(=O)C1(c2ccc(-c3cccn3C)nc2)CCN(c2ccc(C(F)(F)F)cc2C#N)CC1)C1CC1` [Compound 1-266, 1-[2-cyano-4-(trifluoromethyl)phenyl]-N-{2-[cyclopropyl(methyl)amino]ethyl}-4-[6-(1-methyl-1H-pyrrol-2-yl)pyridin-3-yl]piperidine-4-carboxamide], the Ki was < 10 nM.
`COc1ncccc1-c1ccc(C2(C(=O)N[C@H]3CCN(C)C3)CCN(c3ccc(C(F)(F)F)cc3Cl)CC2)cn1` [Compound 1-142, 1-[2-chloro-4-(trifluoromethyl)phenyl]-4-{2′-methoxy-[2,3′-bipyridin]-5-yl}-N-[(3S)-1-methylpyrrolidin-3-yl]piperidine-4-carboxamide]: the Ki was < 10 nM.
Regarding `CN1CC[C@H](NC(=O)C2(c3cnc(-c4cccn4C)c(F)c3)CCN(c3ccc(C(F)(F)F)cc3Cl)CC2)C1` [Compound 1-162, 1-[2-chloro-4-(trifluoromethyl)phenyl]-4-[5-fluoro-6-(1-methyl-1H-pyrrol-2-yl)pyridin-3-yl]-N-[(3S)-1-methylpyrrolidin-3-yl]piperidine-4-carboxamide], the Ki is < 10 nM.
Regarding `CCOc1ccccc1-c1ccc(C2(C(=O)N[C@H]3CCN(C)C3)CCN(c3ccc(C(F)(F)F)cc3F)CC2)cn1` [Compound 1-145, 4-[6-(2-ethoxyphenyl)pyridin-3-yl]-1-[2-fluoro-4-(trifluoromethyl)phenyl]-N-[(3S)-1-methylpyrrolidin-3-yl]piperidine-4-carboxamide], the Ki is < 10 nM.
The same measure for `COc1ccccc1-c1ccc(C2(C(=O)NC3CN(C)C3)CCN(c3ccc(Cl)cc3C#N)CC2)cn1` [Compound 1-92, 1-(4-chloro-2-cyanophenyl)-4-[6-(2-methoxyphenyl)pyridin-3-yl]-N-(1-methylazetidin-3-yl)piperidine-4-carboxamide]: < 10 nM; for `CCOc1ncccc1-c1ccc(C2(C(=O)NC[C@H](C)N)CCN(c3ccc(C(F)(F)F)cc3C#N)CC2)cn1` [Compound 1-16, N-[(2S)-2-aminopropyl]-1-[2-cyano-4-(trifluoromethyl)phenyl]-4-{2′-ethoxy-[2,3′-bipyridin]-5-yl}piperidine-4-carboxamide]: < 10 nM.
